Assay results from patent publication US12173026B2, “PRMT5 inhibitors” (Merck Sharp & Dohme LLC, priority 2018, dated 2024).
Where a name gives a salt, the structure may show the parent alone.

system: symmetric dimethylation of arginine (SDMA) of PRMT5 substrates in MCF-7 cells; assay: PRMT5 Cell Target Engagement (TE) Assay; assay type: cell-based; settings: Homo sapiens, MCF7, 72 h; MCF-7 cells treated for 3 days; nuclear SDMA by high content imaging; top concentration 10000 nM
From the text: PRMT5 Cell Target Engagement (TE) Assay
The PRMT5 TE assay is a biomarker assay for identifying compounds that inhibit symmetric dimethylation of arginine (SDMA) of PRMT5 substrates. The following substrates have been reported for PRMT5: Histone H2A and H4 R3, Histone H3 R2, Histone 1-13 R8, spliceosome Sm proteins, ribosomal protein RPS10, p53, FEN1, nucleoplasmin, nucleolin, EGFR and EBNA. The assay will focus on detecting symnetrically dimethylated nuclear proteins using high content imaging technology. Detection of the expression of symmetrically dimethylated nuclear proteins is through a mixture of primary rabbit monoclonal antibodies to SDMA (CST 13222) which in turn recognized by an Alexafluor 488 dye-conjugated anti-rabbit IgG secondary antibody. The IN Cell Analyzer 2200 or Opera-Phenix measures nuclear Alexafluor 488 fluorescent dye intensity that is directly related to the level of expression of symmetrically dimethylated nuclear proteins at the single cell level. Nuclear AF488 dye intensities are compared to the mean value for DMSO treated cells (MIN) to report percent of inhibition for each compound-treated well.
In this assay, the cell potency (EC50) of each compound was determined from a ten point (1:3 serial dilution; top compound concentration of 10000 nM) titration curve using the following outlined procedure. Each well of a BD falcon collagen coated black/clear bottom 384-well plate was seeded with 4000 MCF-7 cells in 30 pal media and allowed to attach for 5 hours. Media is ATCC-formulated Eagle's Minimum Essential Medium, Catalog No. 30-2003. The following components were added to the base medium: 0.01 mg/mL human recombinant insulin; fetal bovine serum to a final concentration of 10%. Additional 30 pal of media containing 2× compounds were added to each well. Cells were treated for 3 days in 37° C. CO2 incubator. On day 3, cells were fixed with Cytofix, permeabilized with 0.4% Triton-X-100/Cytofix, and washed with D-PBS without Ca/Mg. Cells were blocked with Licor Odessey blocking reagent for 1 hour at room temperature, followed by incubation with anti-SDMA (1:1000) antibody at 4° C. overnight. 1° antibody was removed, followed by three washings with DPBS without Ca/Mg and 0.05% Tween20. Hoechst (5 μg/mL), Cell Mask deep stain (1:2000) and Alexa488-conjugated goat anti-rabbit IgG (2 μg/mL) was added for 1 hour at room temperature. A final washing step (three washes) was performed before sealing plate for imaging on in Cell Analyzer 2200 or Opera-Phenix. Images from analyzer were uploaded to Columbus for image analysis. IC50 values were determined by 4 parameters robust fit of percent fluorescence units vs. (Log 10) compound concentrations.

| SMILES | EC50 |
| --- | --- |
| Nc1nc2cc(C[C@@H]3CC[C@@]4(O)[C@@H]3O[C@@H](n3cc(F)c5c(N)ncnc53)[C@@H]4O)cc(F)c2cc1F [Example 24, (2R,3R,3aS,6S,6aR)-6-((2-amino-3,5-difluoroquinolin-7-yl)methyl)-2-(4-amino-5-fluoro-7H-pyrrolo[2,3-d]pyrimidin-7-yl)hexahydro-3aH-cyclopenta[b]furan-3,3a-diol] | 1.3 nM |
| Cc1ncnc2c1ccn2[C@@H]1O[C@@H]2[C@H](Cc3cnc4cc(F)c(N)nc4c3)CC[C@]2(O)[C@H]1O [Example 25, (2R,3R,3aS,6S,6aR)-6-((6-amino-7-fluoro-1,5-naphthyridin-3-yl)methyl)-2-(4-methyl-7H-pyrrolo[2,3-d]pyrimidin-7-yl)hexahydro-3aH-cyclopenta[b]furan-3,3a-diol, 3HCl] | 258 nM |
| Nc1nc2c(F)c(C[C@@H]3CC[C@@]4(O)[C@@H]3O[C@@H](n3ccc5c(N)ncnc53)[C@@H]4O)ccc2cc1Cl [Example 26, (2R,3R,3aS,6S,6aR)-6-((2-amino-3-chloro-8-fluoroquinolin-7-yl)methyl)-2-(4-amino-7H-pyrrolo[2,3-d]pyrimidin-7-yl)hexahydro-3aH-cyclopenta[b]furan-3,3a-diol] | 4 nM |
| Nc1nc2cc(C[C@@H]3CC[C@@]4(O)[C@@H]3O[C@@H](n3ccc5c(N)ncnc53)[C@@H]4O)c(F)cc2cc1F [Example 27] | 2.8 nM |
| Nc1nc2nc(C[C@@H]3CC[C@@]4(O)[C@@H]3O[C@@H](n3ccc5c(N)ncnc53)[C@@H]4O)ccc2cc1Cl [Example 28, (2R,3R,3aS,6S,6aR)-6-(7-amino-6-chloro-1,8-naphthyridin-2-yl)methyl)-2-(4-amino-7H-pyrrolo[2,3-d]pyrimidin-7-yl)hexahydro-3aH-cyclopenta[b]furan-3,3a-diol trihydrochloride] | 13 nM |
| Nc1nc2cc(C[C@@H]3CC[C@@]4(O)[C@@H]3O[C@@H](n3ccc5c(N)ncnc53)[C@@H]4O)cc(F)c2cc1F [Example 29, (2R,3R,3aS,6S,6aR)-6-[(2-amino-3,5-difluoroquinolin-7-yl)methyl]-2-(4-amino-7H-pyrrolo[2,3-d]pyrimidin-7-yl)hexahydro-3aH-cyclopenta[b]furan-3,3a-diol] | 1.7 nM |
| Nc1nc2cc(C[C@@H]3CC[C@@]4(O)[C@@H]3C[C@@H](n3cc(F)c5c(N)ncnc53)[C@@H]4O)cc(F)c2cc1F [Example 30, (1S,2R,3aR,4S,6aR)-4-((2-amino-3,5-difluoroquinolin-7-yl)methyl)-2-(4-amino-5-fluoro-7H-pyrrolo[2,3-d]pyrimidin-7-yl)hexahydropentalene-1,6a(1H)-diol] | 0.8 nM |
| Cc1nc(N)c2ccn([C@@H]3C[C@@H]4[C@H](Cc5ccc6cc(Cl)c(N)nc6c5)CC[C@]4(O)[C@H]3O)c2n1 [Example 31, (1S,2R,3aR,4S,6aR)-2-(4-amino-2-methyl-7H-pyrrolo[2,3-d]pyrimidin-7-yl)-4-((2-amino-3-chloroquinolin-7-yl)methyl) hexahydropentalene-1,6a(1H)-diol 2,2,2-trifluoroacetate] | 0.8 nM |
| Cc1nc(N)c2ccn([C@@H]3C[C@@H]4[C@H](Cc5ccc6cc(F)c(N)nc6c5)CC[C@]4(O)[C@H]3O)c2n1 [Example 32, (1S,2R,3aR,4S,6aR)-2-(4-amino-2-methyl-7H-pyrrolo[2,3-d]pyrimidin-7-yl)-4-((2-amino-3-fluoroquinolin-7-yl)methyl) hexahydropentalene-1,6a(1H)-diol 2,2,2-trifluoroacetate] | 0.8 nM |
| Nc1nc2cc(C[C@@H]3CC[C@@]4(O)[C@@H]3C[C@@H](n3cc(F)c5c(N)ncnc53)[C@@H]4O)ccc2cc1F [Example 33, (1S,2R,3aR,4S,6aR)-4-((2-amino-3-fluoroquinolin-7-yl)methyl)-2-(4-amino-5-fluoro-7H-pyrrolo[2,3-d]pyrimidin-7-yl)hexahydropentalene-1,6a(1H)-diol] | 0.4 nM |
| Nc1nc2cc(C[C@@H]3CC[C@@]4(O)[C@@H]3C[C@@H](n3cc(F)c5c(N)ncnc53)[C@@H]4O)ccc2cc1Cl [Example 34, (1S,2R,3aR,4S,6aR)-4-((2-amino-3-chloroquinolin-7-yl)methyl)-2-(4-amino-5-fluoro-7H-pyrrolo[2,3-d]pyrimidin-7-yl)hexahydropentalene-1,6a(1H)-diol] | 0.3 nM |
| Cc1cn([C@@H]2C[C@@H]3[C@H](Cc4cc(F)c5cc(F)c(N)nc5c4)CC[C@]3(O)[C@H]2O)c2ncnc(N)c12 [Example 35, (1S,2R,3aR,4S,6aR)-4-[(2-amino-3,5-difluoroquinolin-7-yl)methyl]-2-(4-amino-5-methyl-7H-pyrrolo[2,3-d]pyrimidin-7-yl)hexahydropentalene-1,6a(1H)-diol] | 0.8 nM |
| Cc1cn([C@@H]2C[C@@H]3[C@H](Cc4cc(F)c5cc(Cl)c(N)nc5c4)CC[C@]3(O)[C@H]2O)c2ncnc(N)c12 [Example 36, (1S,2R,3aR,4S,6aR)-4-[(2-amino-3-chloro-5-fluoroquinolin-7-yl)methyl]-2-(4-amino-5-methyl-7H-pyrrolo[2,3-d]pyrimidin-7-yl)hexahydropentalene-1,6a(1H)-diol] | 1.4 nM |
| Cc1nc(N)c2ccn([C@@H]3C[C@@H]4[C@H](Cc5ccc6cc(Br)c(N)nc6c5)CC[C@]4(O)[C@H]3O)c2n1 [Example 37, (1S,2R,3aR,4S,6aR)-2-(4-amino-2-methyl-7H-pyrrolo[2,3-d]pyrimidin-7-yI)-4-((2-amino-3-bromoquinolin-7-yl)methyl)hexahydropentalene-1,6a(1H)-diol] | 0.6 nM |
| Cc1cn([C@@H]2C[C@@H]3[C@H](Cc4ccc5cc(F)c(N)nc5c4)CC[C@]3(O)[C@H]2O)c2ncnc(N)c12 [Example 38, (1S,2R,3aR,4S,6aR)-4-((2-amino-3-fluoroquinolin-7-yl)methyl)-2-(4-amino-5-methyl-7H-pyrrolo[2,3-d]pyrimidin-7-yl)hexahydropentaiene-1,6a(1H)-diol] | 0.6 nM |
| Cc1cn([C@@H]2C[C@@H]3[C@H](Cc4ccc5cc(Cl)c(N)nc5c4)CC[C@]3(O)[C@H]2O)c2ncnc(N)c12 [Example 39, (1S,2R,3aR,4S,6aR)-4-((2-amino-3-chloroquinolin-7-yl)methyl)-2-(4-amino-5-methyl-7H-pyrrolo[2,3-d]pyrimidin-7-yl)hexahydropentalene-1,6a(1H)-diol] | 0.3 nM |
| Cc1cn([C@@H]2C[C@@H]3[C@H](Cc4ccc5cc(Br)c(N)nc5c4)CC[C@]3(O)[C@H]2O)c2ncnc(N)c12 [Example 40, (1S,2R,3aR,4S,6aR)-4-((2-amino-3-bromoquinolin-7-yl)methyl)-2-(4-amino-5-methyl-7H-pyrrolo[2,3-d]pyrimidin-7-yl)hexahydropentalene-1,6a(1H)-diol] | 0.7 nM |
| Nc1nc2cc(C[C@@H]3CC[C@@]4(O)[C@@H]3C[C@@H](n3ccc5c(N)ncnc53)[C@@H]4O)ccc2cc1Br [Example 41, (1S,2R,3aR,4S,6aR)-4-((2-amino-3-bromoquinolin-7-yl)methyl)-2-(4-amino-7H-pyrrolo[2,3-d]pyrimidin-7-yl)hexahydropentalene-1,6a (1H)-diol 2,2,2-trifluoroacetate] | 2.9 nM |
| Nc1nc2cc(C[C@@H]3CC[C@@]4(O)[C@@H]3C[C@@H](n3cc(F)c5c(N)ncnc53)[C@@H]4O)ccc2cc1Br [Example 42, (1S,2R,3aR,4S,6aR)-4-((2-amino-3-bromoquinolin-7-yl)methyl)-2-(4-amino-5-fluoro-7H-pyrrolo[2,3-d]pyrimidin-7-yl)hexahydropentalene-1,6a(1H)-diol] | 0.3 nM |
